Experimental data published in patent US12329733B2, “Acetyl-leucine or a pharmaceutically acceptable salt thereof for improved mobility and cognitive function” (INTRABIO LTD., priority 2016, dated 2025).

Assays:
[1] = tested on: patient with postural imbalance; assay: maximal distance to walk; assay type: in vivo, human; conditions: Example 6: person; 5 g/day (2/1.5/1.5 g) for 1 month; baseline 1 km
Text: (§1) The patient was examined clinically by means of the following clinical assessments: maximal distance to walk; timed Up and Go test; Scale for the Assessment and Rating of Ataxia (SARA).
Baseline (prior to commencement of treatment): Maximal distance to walk until the patient could not walk anymore because of fatigue was 1 km. The […] up-and-go test yielded 25.4 sec. SARA yielded 6.5/40. […] Tandem stance and gait was not possible to perform due to an increased fall risk. Mean timed 8-meter-walking test was 6.5 sec.

[2] = tested on: subjects with no apparent dysfunction in cognitive ability or movement/balance; assay: balancing ability (eyes closed, non-dominant foot lifted, timed); assay type: in vivo, human
Description: Due to reported improvement in balance on treatment we measured balancing ability at the end of the treatment period and at the end of the washout period. This assessment required the subject to close their eyes and lift their non-dominant foot around 6 inches off the ground. The subject was then timed to see how long they could remain upright and without significant wobbles. This was repeated three times, and the values averaged. […] This assessment required the subject to close their eyes and lift their non-dominant foot around 6 inches off the ground. The subject was then timed to see how long they could remain upright and without significant wobbles. This was repeated three times, and the values averaged. We measured balancing ability at the end of the treatment period and at the end of the washout period. This assessment required the subject to close their eyes and lift their non-dominant foot around 6 inches off the ground. The subject was then timed to see how long they could remain upright and without significant wobbles. This was repeated three times, and the values averaged.

[3] = tested on: patients with cerebellar ataxia of different etiologies; conditions: in responders, ref (8); cited from earlier work
[4] = tested on: patients with postural imbalance / gait disorder; subjects; assay: clinical examination and patient/family reports of balance, gait, dizziness and falls; assay type: in vivo, human; conditions: for balance (subjective): 5 g/day
Text: In addition to the mobility assessments disclosed above, mobility in a subject having a mobility disorder associated with ageing may be tested, for example, using assessments of balance and/or through monitoring the number of falls experienced by the subject.

[5] = tested on: subjects (cognitive function); assay: subject and family reports of cognitive function and alertness; assay type: in vivo, human; conditions: for Details on Subjective Improvement / Subjective Improvement on treatment?: 5 g/day
Text: “Cognitive function” can mean any mental process that involves a symbolic operation, for example, perception, memory, creation of imagery, awareness, reasoning, thinking and capacity for judgment. Measures of cognitive functioning include assessment tools designed to measure, for example: (a) general intelligence, (b) nonverbal intelligence, (c) achievement, (d) attention/executive functioning, (e) memory and learning, (f) visual-motor and motor functioning and (g) language. Such assessment tools are well-known in the art and include, for example, Wechsler Adult Intelligence Scale and Woodcock-Johnson III Tests of Cognitive Abilities (both for assessing general intelligence), Raven Progressive Matrices (for assessing nonverbal intelligence), Wide Range Achievement Test and Woodcock-Johnson III Tests of Achievement (for assessing academic achievement), Conners' Continuous Performance Test II (for assessing attention/executive functioning), Wide Range Assessment of Memory and Learning (for assessing memory and learning), Bender Visual-Motor Gestalt Test, Halstead-Reitan Grip Strength Test, Halstead-Reitan Finger Tapping Test and Lafayette Grooved Pegboard Task (all for assessing visual-motor and motor functioning) and Peabody Picture Vocabulary Test (for assessing language).

[6] = tested on: patient with postural imbalance; assay: Scale for the Assessment and Rating of Ataxia (SARA); assay type: in vivo, human; conditions: Example 6: 5 g/day for 1 month; baseline 6.5/40
Text: as §1

[7] = tested on: subject suffering from imbalance and gait disorder; assay: home setting “get up and go test”; assay type: in vivo, human; conditions: Example 1: person, 4.5 g/day
Description: “Mobility” refers to the ability of a subject to move. Mobility may be assessed in the elderly using one or more simple tests. As illustrated in the Examples, the “get up and go” test is a simple test capable of measuring mobility. In this test, the speed of sit to stand and walking to a target point is analysed, suitably as described in the Examples. For example, the test may begin with the subject sitting in a chair. At the start of the stop clock, the subject should rise unaided and walk to a target point. The target point may be 2-10 m away, optionally 4-6 m away. The stop clock should be stopped upon the subject reaching the target point. Any change in mobility, for example, over time or through treatment, can be monitored by using the “get up and go” test at two or more time points and comparing the results, again as illustrated in the Examples. Other suitable tests for measuring mobility include those used in the Elderly Mobility Scale (EMS), a 20-point validated assessment tool for the assessment of frail elderly subjects (9), considering locomotion, balance and key position changes. The ability of the subject to move was measured in a home setting “get up and go test”. This test involved the subject rising unaided from their chair and walking the length of their living area to their kitchen. […]

[8] = tested on: patients with gait disorder; assay: quantitative gait analysis (“gait-rite”, video); assay type: in vivo, human
[9] = Example 1: after one-month course ceased
[10] = Example 1: remains on 4.5 g per day
[11] = Example 1: person, 4.5 g/day, after 2-3 weeks of treatment

CC(=O)NC(CC(C)C)C(=O)O (racemic) [acetyl-DL-leucine]
Maximal distance to walk [1]: 1.5 km
time able to remain balanced (average of 3 tests) ([2]; Example 7: 66 M, end of washout period): 4.01 s
time able to remain balanced (average of 3 tests) ([2]; Example 7: 66 M, last day of treatment period): 7.27 s
time able to remain balanced (average of 3 tests) ([2]; Example 9: 55 F, end of washout period): 8 s
time able to remain balanced (average of 3 tests) ([2]; Example 9: 55 F, last day of treatment period): 12 s
time able to remain balanced (average of 3 tests) ([2]; Example 11: 53 M, end of washout period): 3.1 s
time able to remain balanced (average of 3 tests) ([2]; Example 11: 53 M, last day of treatment period): 7.9 s
brain metabolism (PET) [3]: increased metabolism in the midbrain and lower brainstem
balance after ceasing treatment [4, 9]: remained good for two weeks then deteriorated
walking confidence / balance ([4]; Example 1: person, 4.5 g/day, by 7-10 days of treatment): more confident walking due to improved balance
improvements of first and second months, on further treatment [4, 10]: have continued
improvements noticed in first month, on second treatment ([4]; Example 1: second one-month course, 4.5 g/day): rapidly returned
dizziness symptoms ([4]; Example 2: person, balance disorder/senile gait disorder, 3 g/day first week then 5 g/day, Day 14): improvement of dizziness symptoms
frequency of falls ([4]; Example 2: person, 3 g/day first week then 5 g/day, Day 14): significant reduction in the frequency of falls
hypokinetic-rigid syndrome ([4]; Example 2: person, Day 14): No change
dizziness symptoms after suspension of treatment ([4]; Example 2: treatment suspended Day 56, re-evaluated Day 62): increase of dizziness symptoms two days after suspension of treatment
time when improvement began ([4]; Example 3: person): second week of treatment
dizziness and imbalance (spouse feedback) ([4]; Example 3: person, 3 g/day one week then 5 g/day, 22 days after beginning treatment): significant reduction of dizziness and imbalance
gait (spouse feedback) ([4]; Example 3: person, 22 days after beginning treatment): significant improvement of gait
gait and imbalance (patient and child report) ([4]; Example 4: person, 3 g/day one week then 5 g/day, 3 weeks after beginning treatment): significantly improved
clinical examination of gait and balance ([4]; Example 5: Day 42, 3 gram per day): significant improvement of gait and balance
spouse report on re-evaluation ([4]; Example 5: Day 42, 3 gram per day restarted Day 28): dramatic improvement with impact on functioning and quality of living
falls ([4]; Example 5: Day 42, four falls over three months before Day 0): No further falls were reported
symptoms after medication was stopped ([4]; Example 5: medication stopped after two weeks): worsening of symptoms
gait (patient and spouse report) ([4]; Example 5: patient, progressive gait disorder, 3 gram per day for two weeks): considerable improvement of gait
improvements on lower dosage ([4]; Example 6: 1 g/1 g/1 g for over 4 months): remained unchanged
sway ([4]; Example 6: 5 g/day for 1 month): became visibly calmer
stance with feet together, tandem stance and gait ([4]; Example 6: 5 g/day for 1 month, tandem stance and gait not possible at baseline): possible with increased omnidirectional sway
postural stability (subjective) ([4]; Example 6: 5 g/day for 1 month, walking and stairs): subjectively more postural stable
frequency of falls ([4]; Example 6: current state on 1 g/1 g/1 g, 2-3 per month before treatment): 0-1 /month
falls during therapy period ([4]; Example 6: therapy period of 1 month, 2-3 per month before): did not record any falls
balance (subjective) ([4]; Example 7: 66 M): improvement in their balance
balance (subjective) ([4]; Example 8: 29 M): no difference in balance
cognition after ceasing treatment [5, 9]: gradually declined to their pre-treatment status over one month
alertness on waking (subject's description) [5, 11]: fully alert on waking
cognitive function, spatial awareness and general demeanor (family) [5, 11]: significant improvement in their cognitive function, spatial awareness and general demeanor
confusion evident prior to treatment [5, 10]: entirely absent
communication and executive function (family) ([5]; Example 6: 5 g/day for 1 month): executive function improved
energy, agility (subjective) ([5]; Example 6: 5 g/day for 1 month): more energy, was more agile and interactive
Details on Subjective Improvement ([5]; Example 7: 66 M): improvement in general alertness and a shortening of the time required to go from ‘asleep’ to ‘fully awake’
Subjective Improvement on treatment? ([5]; Example 7: 66 M): Yes
Details on Subjective Improvement ([5]; Example 8: 29 M): improvement in general alertness. They also reported a decrease in anxiety
Subjective Improvement on treatment? ([5]; Example 8: 29 M): Yes
Details on Subjective Improvement ([5]; Example 9: 55 F): shortening of the time required to go from ‘asleep’ to ‘fully awake’
Subjective Improvement on treatment? ([5]; Example 9: 55 F): Yes
Subjective Improvement on treatment? ([5]; Example 10: […]): no difference between on and off medication
Subjective Improvement on treatment? ([5]; Example 10: […], listed as acetyl-leucine): No
Details on Subjective Improvement ([5]; Example 11: 53 M): improvement in general alertness and a shortening of the time required to go from ‘asleep’ to ‘fully awake’
Subjective Improvement on treatment? ([5]; Example 11: 53 M): Yes
Details on Subjective Improvement ([5]; Example 12: 48 F): feeling less tired than usual and taking less time than was usual to go from asleep to fully awake
Subjective Improvement on treatment? ([5]; Example 12: 48 F): Yes
SARA [6]: 2 /40
faster than pre-treatment in get up and go test [7]: 25%
average time taken to rise unaided from chair and walk the length of living area to kitchen ([7]; seven consecutive days once treatment had started, prior to treatment 40±3 seconds): 30 ± 2 s
video analysis of gait ([8]; Example 4: 3 weeks after beginning treatment): now even able to run
Coefficient of variation (CV) of stride time: CV = (standard deviation/mean) × 100 ([8]; Example 4: after 3 weeks' treatment, before treatment 1.6): 1.8
Spreading width (distance between the heel center of one footprint to the line of movement of the other foot) ([8]; Example 4: after 3 weeks' treatment, before treatment 9.3): 8.1 cm
% of the time of two periods in the gait cycle in which both feet at the same time are in contact with the ground ([8]; Example 4: after 3 weeks' treatment, before treatment 27.2): 25.5%
Cadence ([8]; Example 4: after 3 weeks' treatment, before treatment 92): 100 steps/minute
Step cycle length (distance between two consecutive contacts of a foot on the ground) ([8]; Example 4: after 3 weeks' treatment, before treatment 116): 116 cm
Maximum walking speed (maximal gait velocity) ([8]; Example 4: after 3 weeks' treatment, before treatment 141): 157 cm/s
Natural walking speed (self-chosen gait velocity) ([8]; Example 4: person, after 3 weeks' treatment, before treatment 88): 96 cm/s
self-chosen gait velocity ([8]; Example 5: Day 42, 3 gram per day, from 55 cm/sec at Day 0): 62 cm/s
maximal gait velocity ([8]; Example 5: Day 42, 3 gram per day, from 84 cm/sec at Day 0): 130 cm/s
